# Tested on: Helminthosporium gramineum
# Assay: Seed treatment in open field tests for infestation by Helminthosporium gramineum (barley)
# Format: in vivo
# Settings: summer barley; 50 g active agent/100 kg barley; about 3 months
# Method: Seed treatment in open field tests for infestation by Helminthosporium gramineum
# The active agents were used in the form of pulverulent compositions. After about 8 months in case of winter barley and after about 3 months in case of summer barley the infested plants were counted and the activity was calculated by the formula [formula]
row,Structure (SMILES),% activity
1,"CCS(=O)(=O)c1nnc(C(=O)N(C)C)s1 [5-ethylsulfonyl-1,3,4-thiadiazole-2-carboxylic acid-dimethylamide]",99.5%
2,"CCS(=O)(=O)c1nnc(C(=O)NC)s1 [5-ethylsulfonyl-1,3,4-thiadiazole-2-carboxylic acid-methylamide]",100%

# Same assay, conditions: summer barley; 100 g active agent/100 kg barley; about 3 months
row,Structure (SMILES),% activity
1,"CCS(=O)(=O)c1nnc(C(=O)N(C)C)s1 [5-ethylsulfonyl-1,3,4-thiadiazole-2-carboxylic acid-dimethylamide]",100%
2,"CCS(=O)(=O)c1nnc(C(=O)NC)s1 [5-ethylsulfonyl-1,3,4-thiadiazole-2-carboxylic acid-methylamide]",100%

# Same assay, conditions: winter barley; 50 g active agent/100 kg barley; about 8 months
row,Structure (SMILES),% activity
1,"CCS(=O)(=O)c1nnc(C(=O)N(C)C)s1 [5-ethylsulfonyl-1,3,4-thiadiazole-2-carboxylic acid-dimethylamide]",99.5%
2,"CCS(=O)(=O)c1nnc(C(=O)NC)s1 [5-ethylsulfonyl-1,3,4-thiadiazole-2-carboxylic acid-methylamide]",100%

# Same assay, conditions: winter barley; 100 g active agent/100 kg barley; about 8 months
row,Structure (SMILES),% activity
1,"CCS(=O)(=O)c1nnc(C(=O)N(C)C)s1 [5-ethylsulfonyl-1,3,4-thiadiazole-2-carboxylic acid-dimethylamide]",100%
2,"CCS(=O)(=O)c1nnc(C(=O)NC)s1 [5-ethylsulfonyl-1,3,4-thiadiazole-2-carboxylic acid-methylamide]",100%

# Tested on: Piricularia oryzae
# Assay: not given
# Format: in vivo
# Settings: concentration of active agent 0.1 (percentages); 5 days
row,Structure (SMILES),% activity
1,"CCS(=O)(=O)c1nnc(C(=O)N(C)C)s1 [5-ethylsulfonyl-1,3,4-thiadiazole-2-carboxylic acid-dimethylamide]",90%

# Tested on: Tilletia caries
# Assay: Treatment of oat seeds infested with Tilletia caries (spore germination)
# Format: in vivo
# Settings: 10 g active agent per 100 kg
row,Structure (SMILES),% activity
1,"CCS(=O)(=O)c1nnc(C(=O)N(C)C)s1 [5-ethylsulfonyl-1,3,4-thiadiazole-2-carboxylic acid-dimethylamide]",100%
2,"CCS(=O)(=O)c1nnc(C(=O)NC)s1 [5-ethylsulfonyl-1,3,4-thiadiazole-2-carboxylic acid-methylamide]",100%

# Same assay, conditions: 20 g active agent per 100 kg
row,Structure (SMILES),% activity
1,"CCS(=O)(=O)c1nnc(C(=O)N(C)C)s1 [5-ethylsulfonyl-1,3,4-thiadiazole-2-carboxylic acid-dimethylamide]",100%
2,"CCS(=O)(=O)c1nnc(C(=O)NC)s1 [5-ethylsulfonyl-1,3,4-thiadiazole-2-carboxylic acid-methylamide]",100%

# Same assay, conditions: 50 g active agent per 100 kg
row,Structure (SMILES),% activity
1,"CCS(=O)(=O)c1nnc(C(=O)N(C)C)s1 [5-ethylsulfonyl-1,3,4-thiadiazole-2-carboxylic acid-dimethylamide]",100%
2,"CCS(=O)(=O)c1nnc(C(=O)NC)s1 [5-ethylsulfonyl-1,3,4-thiadiazole-2-carboxylic acid-methylamide]",100%

# Tested on: Pythium ultimum
# Assay: Threshold concentration test for use of the compounds against Pythium ultimum (infested soil, garden peas)
# Format: in vivo
# Design: key to root evaluation (1-4): 4: white roots without fungous necrosis; 3: white roots, minor fungous necrosis; 2: brown roots, already more pronounced fungous necrosis; 1: heavy fungous necrosis, roots rotted
# Settings: 20 mg/l soil; 3 weeks
# In short: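 Garden pea seeds, 20 per dish, went straight into Pythium ultimum-infested soil into which 20% pulverulent formulations had been uniformly blended. Sound plants counted and roots rated 1–4 after three weeks of hothouse growth at 20–24 °C.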
row,Structure (SMILES),root evaluation (1-4)
1,"CCS(=O)(=O)c1nnc(C(=O)N(C)C)s1 [5-ethylsulfonyl-1,3,4-thiadiazole-2-carboxylic acid-dimethylamide]",4
2,"CCS(=O)(=O)c1nnc(C(=O)NC)s1 [5-ethylsulfonyl-1,3,4-thiadiazole-2-carboxylic acid-methylamide]",4

# Same assay, conditions: 20 mg/l soil; 20 grains per dish; 3 weeks at 20-24° C.
row,Structure (SMILES),number of sound peas
1,"CCS(=O)(=O)c1nnc(C(=O)N(C)C)s1 [5-ethylsulfonyl-1,3,4-thiadiazole-2-carboxylic acid-dimethylamide]",13
2,"CCS(=O)(=O)c1nnc(C(=O)NC)s1 [5-ethylsulfonyl-1,3,4-thiadiazole-2-carboxylic acid-methylamide]",17

# Same assay, conditions: 40 mg/l soil; 3 weeks
row,Structure (SMILES),root evaluation (1-4)
1,"CCS(=O)(=O)c1nnc(C(=O)N(C)C)s1 [5-ethylsulfonyl-1,3,4-thiadiazole-2-carboxylic acid-dimethylamide]",4
2,"CCS(=O)(=O)c1nnc(C(=O)NC)s1 [5-ethylsulfonyl-1,3,4-thiadiazole-2-carboxylic acid-methylamide]",4

# Same assay, conditions: 40 mg/l soil; 20 grains per dish; 3 weeks at 20-24° C.
row,Structure (SMILES),number of sound peas
1,"CCS(=O)(=O)c1nnc(C(=O)N(C)C)s1 [5-ethylsulfonyl-1,3,4-thiadiazole-2-carboxylic acid-dimethylamide]",13
2,"CCS(=O)(=O)c1nnc(C(=O)NC)s1 [5-ethylsulfonyl-1,3,4-thiadiazole-2-carboxylic acid-methylamide]",15

# Same assay, conditions: 80 mg/l soil; 3 weeks
row,Structure (SMILES),root evaluation (1-4)
1,"CCS(=O)(=O)c1nnc(C(=O)N(C)C)s1 [5-ethylsulfonyl-1,3,4-thiadiazole-2-carboxylic acid-dimethylamide]",4
2,"CCS(=O)(=O)c1nnc(C(=O)NC)s1 [5-ethylsulfonyl-1,3,4-thiadiazole-2-carboxylic acid-methylamide]",4

# Same assay, conditions: 80 mg/l soil; 20 grains per dish; 3 weeks at 20-24° C.
row,Structure (SMILES),number of sound peas
1,"CCS(=O)(=O)c1nnc(C(=O)N(C)C)s1 [5-ethylsulfonyl-1,3,4-thiadiazole-2-carboxylic acid-dimethylamide]",15
2,"CCS(=O)(=O)c1nnc(C(=O)NC)s1 [5-ethylsulfonyl-1,3,4-thiadiazole-2-carboxylic acid-methylamide]",19

# Tested on: Helminthosporium gram
# Assay: not given
# Settings: 20 g active agent per 100 kg; about 5 weeks
row,Structure (SMILES),% activity
1,"CCS(=O)(=O)c1nnc(C(=O)N(C)C)s1 [5-ethylsulfonyl-1,3,4-thiadiazole-2-carboxylic acid-dimethylamide]",94%
2,"CCS(=O)(=O)c1nnc(C(=O)NC)s1 [5-ethylsulfonyl-1,3,4-thiadiazole-2-carboxylic acid-methylamide]",91%

# Same assay, conditions: 50 g active agent per 100 kg; about 5 weeks
row,Structure (SMILES),% activity
1,"CCS(=O)(=O)c1nnc(C(=O)N(C)C)s1 [5-ethylsulfonyl-1,3,4-thiadiazole-2-carboxylic acid-dimethylamide]",100%
2,"CCS(=O)(=O)c1nnc(C(=O)NC)s1 [5-ethylsulfonyl-1,3,4-thiadiazole-2-carboxylic acid-methylamide]",97%

# Tested on: Septoria nodorum
# Assay: Treatment of oat seeds against Septoria nodorum
# Format: in vivo
# Settings: 50 g active agent/100 kg seeds; 4 weeks
# Method: Effects of the treatment of oat seeds against Septoria nodorum
# They were then seeded on a moist substrate for germination. As a control untreated seeds were likewise seeded. At about 6° C. the seed was incubated in an air-conditioned chamber until after 4 weeks the proportion of diseased seeds could be determined and the activity of the fungicidal compounds was calculated on the basis of the following formula: [formula]
# The active agents were applied in the form of 20% concentration pulverulent compositions.
row,Structure (SMILES),% activity
1,"CCS(=O)(=O)c1nnc(C(=O)N(C)C)s1 [5-ethylsulfonyl-1,3,4-thiadiazole-2-carboxylic acid-dimethylamide]",86%
2,"CCS(=O)(=O)c1nnc(C(=O)NC)s1 [5-ethylsulfonyl-1,3,4-thiadiazole-2-carboxylic acid-methylamide]",72%

# Tested on: Fusarium nivale
# Assay: Treatment of rye seeds against Fusarium nivale
# Format: in vivo
# Settings: 100 g/100 kg; about 4 weeks
# Method: Treatment of rye seeds against Fusarium nivale
# Rye seeds with a natural infestation by Fusarium nivale were seeded in earth filled pots and left for germination at about 6° C. Part of the seeds was treated before seeding with the active agents as appears from the subsequent table and part was untreated. After emergence of the seedlings the plants were illuminated with artificial light for 12 hours each day. After about 4 weeks the degree of infestation was determined in percentages. The fungicidal activity was calculated on the basis of the following formula: [formula]
# The active agents were used in the form of 20% concentration compositions.
row,Structure (SMILES),% activity
1,"CCS(=O)(=O)c1nnc(C(=O)N(C)C)s1 [5-ethylsulfonyl-1,3,4-thiadiazole-2-carboxylic acid-dimethylamide]",100%
2,"CCS(=O)(=O)c1nnc(C(=O)NC)s1 [5-ethylsulfonyl-1,3,4-thiadiazole-2-carboxylic acid-methylamide]",100%
